Structures are written as SMILES.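 Growth conditions: 96-well plates. Treatment: test compound, 48 hours, 5 concentrations. Analysis: linear interpolation between bracketing concentrations; unreached endpoints set to highest concentration. GI50 is the concentration that inhibits growth by half.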 Calls of active or inactive are those of the source. Cut-off read from the data, not from the text of the source: active = GI50 up to about 1.1 µM and inactive = higher. Where a SMILES comes first, the peptide text is derived from it. The star is where a group is joined. Cbz = O=C(OCc1ccccc1)* A value given as a limit tells only on which side of the number the result lay.

Among the test systems are ACHN; BT-549; CAKI-1; CCRF-CEM; HCC 2998; HCT-116; IGROV-1; LOX IMVI; MCF7; MDA-MB-435; Malme-3M; NCI-H23; OVCAR-5; OVCAR-8; RXF 393; SK-MEL-28; SK-MEL-2; SN12C; SNB-75; UO-31.
What all share (experiment): NCI-60 cell line screen, 48 h

On to `CN(C)CC1CCC/C(=C\c2ccc(OC(=O)/C=C/c3ccc(Cl)c(Cl)c3)cc2)C1=O` (stereo not given), for which the GI50 in the experiment on ACHN is 1.82 µM (inactive); with BT-549, 3.42 µM (inactive); in the experiment with CAKI-1, 2.26 µM (inactive); in the experiment with CCRF-CEM, 0.597 µM (active); in the experiment on HCC 2998 it was 2.92 µM (inactive); in the experiment with HCT-116, 3.49 µM (inactive). In addition, the GI50 in the experiment with IGROV-1 was 1.47 µM (inactive); with LOX IMVI, 1.86 µM (inactive); with MCF7 it was 0.857 µM (active); with MDA-MB-435, 6.89 µM (inactive); with Malme-3M, 5.4 µM (inactive); in the experiment on NCI-H23, 3.77 µM (inactive). Moreover, the GI50 with OVCAR-5 was 20.5 µM (inactive); with OVCAR-8 it was 3.92 µM (inactive); with RXF 393 it was 1.88 µM (inactive); with SK-MEL-28 it was 7.8 µM (inactive); in the experiment on SK-MEL-2 it was 15.9 µM (inactive); in the experiment on SN12C, 2.39 µM (inactive). The values for the GI50 in the experiment on SNB-75 and in the experiment on UO-31 were 18.4 µM (inactive) and 2.77 µM (inactive), respectively.

On to `CSc1nc(NC2OCC(OC(C)=O)C(OC(C)=O)C2OC(C)=O)c(/N=C\C=N\c2c(NC3OCC(OC(C)=O)C(OC(C)=O)C3OC(C)=O)nc(SC)[nH]c2=O)c(=O)[nH]1` (stereo not given), for which the GI50 in the experiment with ACHN is > 67.8 µM (inactive); in the experiment on BT-549 it was 55.2 µM (inactive); in the experiment with CAKI-1, > 100 µM (inactive); in the experiment on CCRF-CEM it was > 54.8 µM (inactive); with HCC 2998 it was > 100 µM (inactive); in the experiment with HCT-116 it was > 80.2 µM (inactive). The GI50 was > 93.1 µM (inactive) in the experiment on IGROV-1; > 100 µM (inactive) in the experiment with LOX IMVI; 46.5 µM (inactive) with MCF7; > 100 µM (inactive) in the experiment with MDA-MB-435; > 100 µM (inactive) with Malme-3M; > 91 µM (inactive) with NCI-H23. The GI50 is > 71.8 µM (inactive) in the experiment with OVCAR-5; 46.7 µM (inactive) in the experiment with OVCAR-8; 22.8 µM (inactive) in the experiment on RXF 393; > 100 µM (inactive) with SK-MEL-28; > 100 µM (inactive) in the experiment on SK-MEL-2; > 100 µM (inactive) with SN12C. Further, the GI50 is 19.9 µM (inactive) with SNB-75 and > 83 µM (inactive) in the experiment with UO-31.

On to `COc1ccc2[nH]c(C(=O)N3CC(CCl)c4ccc([N+](=O)[O-])cc43)cc2c1` (stereo not given), for which the GI50 with ACHN, in the experiment with BT-549, in the experiment on CAKI-1, in the experiment with CCRF-CEM, in the experiment on HCC 2998 and with HCT-116 was > 100 µM (inactive) throughout. The GI50 with IGROV-1 was 64.1 µM (inactive); in the experiment with LOX IMVI, > 100 µM (inactive); in the experiment with MCF7, 6.41 µM (inactive); with MDA-MB-435, > 100 µM (inactive); in the experiment on Malme-3M, > 100 µM (inactive); with NCI-H23, > 100 µM (inactive). The GI50 in the experiment on OVCAR-5 is > 100 µM (inactive); in the experiment on OVCAR-8 it was > 80.9 µM (inactive); in the experiment with RXF 393 it was > 65.5 µM (inactive); in the experiment on SK-MEL-28, > 100 µM (inactive); in the experiment with SK-MEL-2, > 100 µM (inactive); with SN12C, > 100 µM (inactive). Besides, the GI50 with SNB-75 is > 37.7 µM (inactive); in the experiment with UO-31, > 100 µM (inactive).

Consider `O=C(O)c1ccc(N2C=[N+]3C(=Nc4ccccc43)C2)cc1`, for which the GI50 in the experiment on ACHN, with BT-549, with CAKI-1, in the experiment with CCRF-CEM, in the experiment on HCC 2998 and with HCT-116 was > 100 µM (inactive) throughout. Besides, the GI50 in the experiment with IGROV-1 is > 100 µM (inactive); with LOX IMVI, > 100 µM (inactive); with MCF7 it was > 100 µM (inactive); with MDA-MB-435 it was > 100 µM (inactive); in the experiment with Malme-3M, 0.475 µM (active); in the experiment with NCI-H23, > 100 µM (inactive). For the same compound, the GI50 with OVCAR-5, in the experiment with OVCAR-8, in the experiment on RXF 393, with SK-MEL-28, in the experiment on SK-MEL-2 and with SN12C was > 100 µM (inactive) in each case. The figures for the GI50 with SNB-75 and in the experiment with UO-31 were 62.7 µM (inactive) and > 100 µM (inactive), respectively.

As to `CCOC(=O)CCC(NC(=O)C(Cc1ccccc1)NC(=O)OCc1ccccc1)C(=O)OCC` (stereo not drawn) (Cbz-Phe-Glu(OEt)-OEt; configuration not given here), the GI50 with ACHN is 17.4 µM (inactive); with BT-549 it was > 100 µM (inactive); in the experiment on CAKI-1, 16.7 µM (inactive); with CCRF-CEM it was 31.3 µM (inactive); with HCC 2998, 17.7 µM (inactive); in the experiment with HCT-116, 18 µM (inactive). Besides, the GI50 in the experiment with IGROV-1 is 18.1 µM (inactive); with LOX IMVI it was 14.7 µM (inactive); with MCF7, 19.2 µM (inactive); with MDA-MB-435, 18.3 µM (inactive); in the experiment with Malme-3M it was 17.4 µM (inactive); with NCI-H23, 17 µM (inactive). The GI50 in the experiment with OVCAR-5 was 16.7 µM (inactive); with OVCAR-8 it was 19.5 µM (inactive); in the experiment with RXF 393, 17.9 µM (inactive); in the experiment with SK-MEL-28 it was 17.9 µM (inactive); with SK-MEL-2, 22.3 µM (inactive); in the experiment with SN12C, 20.7 µM (inactive). In addition, the GI50 in the experiment on SNB-75 was 18.7 µM (inactive); in the experiment with UO-31, 17.4 µM (inactive).

(Values after ChEMBL document CHEMBL1201862, “PubChem BioAssay data set” (2004).)
